Measured values taken from US5081118A, “Benzothiazine dioxide derivatives” (Pfizer Inc., priority 1990, dated 1992).
In brackets after ≈: the same amount, converted by molar mass.

Columns and labels:
physchem = conditions: water
[1] = test system: carrageenin-induced rat foot edema; experiment: standard carrageenin-induced rat foot edema test, oral; type: in vivo; conditions: 32 mg./kg. oral (gavage), carrageenin-injected hind paw, 3 h after carrageenin, vs vehicle control, read-out: % Inhibition of edema formation
Method: In this test, anti-inflammatory activity is determined as the percent inhibition of edema formation in the hind paw of male albino rats (weighing 150-190 g.) in response to a sub-plantar injection of carrageenin. The carrageenin is injected as a 1% aqueous suspension (0.05 ml.) one hour after oral administration of the drug, which is normally given in the form of an aqueous solution. Edema formation is then assessed by measuring the volume of the injected paw initially as well as three hours after the carrageenin injection. The increase in volume three hours after carrageenin injection constitutes the individual response. Compounds are considered active if the difference in response between the drug-treated animals (six rats/group) and a control group receiving the vehicle alone is significant on comparison with the results afforded by a standard compound like phenylbutazone at 33 mg./kg., via the oral route of administration.
The following oxyethyl oxicam final products of Examples 1B, 1C and 5, respectively, were tested for anti-inflammatory activity in rats, using the standard rat foot edema test, according to the general procedure described by C. A. Winter et al., as first reported in the Proceedings of the Society for Experimental Biology and Medicine, Vol. 111, p. 544 (1962).

[2] = compared with piroxicam at an equivalent dose level and other NSAI agents

Compound | solubility (physchem) [mg/mL] | inhibition at 32 mg/kg [1] [%] | oral absorption potential, comparison in words [2]
CN1C(C(=O)Nc2cccc[n+]2CCO)=C([O-])c2ccccc2S1(=O)=O [Product of Example 1C, N-[1-(2-hydroxyethyl)-2-pyridinium]-2-methyl-2H-1,2-benzothiazine-3-carboxamide 1,1-dioxide 4-enolate] |  | 16 | 
Cc1cccc(NC(=O)C2=C(OCCO)c3ccccc3S(=O)(=O)N2C)n1 [Product of Example 5, 4-(2-hydroxyethyloxy)-2-methyl-N-(6-methyl-2-pyridinyl)-2H-1,2-benzothiazine-3-carboxamide 1,1-dioxide] |  | 13 | 
CN1C(C(=O)Nc2ccccn2)=C(O)c2ccccc2S1(=O)=O [Piroxicam, 4-hydroxy-2-methyl-N-(2-pyridinyl)-2H-1,2-benzothiazine-3-carboxamide 1,1-dioxide] | 26.5 (≈ 80 mM) |  | 

Continued, in another order:

solubility (physchem) [mg/mL] | Compound | inhibition at 32 mg/kg [1] [%] | oral absorption potential, comparison in words [2]
0.7 (≈ 1.96 mM) | COc1ccc2c(c1)c(CC(=O)O)c(C)n2C(=O)c1ccc(Cl)cc1 [Indomethacin] |  | 
470 (≈ 1250 mM) | CN1C(C(=O)Nc2ccccn2)=C(OCCO)c2ccccc2S1(=O)=O [Product of Example 1B, 4-(2-hydroxyethyloxy)-2-methyl-N-(2-pyridinyl)-2H-1,2-benzothiazine-3-carboxamide 1,1-dioxide] | 48 | highest oral absorption potential seen in the series of compounds tested
0.3 (≈ 1.45 mM) | CC(C)Cc1ccc(C(C)C(=O)O)cc1 (centres unmarked) [Ibuprofen] |  | 
